Data from US8952024B2, “Herbicidal pyrimidone derivatives” (E I du Pont de Nemours and Company, priority 2009, dated 2015).

Columns and labels:
Assay type in all cases: in vivo
corn (Zea mays) = test: Test B pre-/postemergence plant response; conditions: Postemergence
Summary of the method: (§1)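 Visually scored on a 0 to 100 scale after 13 to 15 days in greenhouse versus controls. Treatments were preemergence on seeded loam/sand soil and postemergence on 1- to 4-leaf plants.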

[1] = tested on: Surinam grass (Brachiaria decumbens); test: Test B pre-/postemergence plant response; conditions: Postemergence
Summary of the method: as §1

[2] = tested on: ragweed (common ragweed, Ambrosia elatior); test: Test B pre-/postemergence plant response; conditions: Postemergence
Summary of the method: as §1

[3] = tested on: goosegrass (Eleusine indica); test: Test B pre-/postemergence plant response; conditions: Postemergence
Summary of the method: as §1

[4] = tested on: giant foxtail (Setaria faberii); test: Test B pre-/postemergence plant response; conditions: Postemergence
Summary of the method: as §1

[5] = tested on: lambsquarters (Chenopodium album); test: Test B pre-/postemergence plant response; conditions: Postemergence
Summary of the method: as §1

[6] = tested on: pigweed (Amaranthus retroflexus); test: Test B pre-/postemergence plant response; conditions: Postemergence
Summary of the method: as §1

[7] = tested on: blackgrass (Alopecurus myosuroides); test: Test B pre-/postemergence plant response; conditions: Postemergence
Summary of the method: as §1

wild oat (Avena fatua) = test: Test B pre-/postemergence plant response; conditions: Postemergence
Summary of the method: as §1

[8] = tested on: green foxtail (Setaria viridis); test: Test B pre-/postemergence plant response; conditions: Postemergence
Summary of the method: as §1

[9] = tested on: johnsongrass (Sorghum halepense); test: Test B pre-/postemergence plant response; conditions: Postemergence
Summary of the method: as §1

rice (Oryza sativa) = test: Test B flooded paddy test; conditions: for Plant response rating, Flood, Rice: 250 g ai/ha, flooded paddy test, visual rating on 0 to 100 scale (0 no effect, 100 complete control) after 13 to 15 days; for Plant response rating, Rice: Flood (flooded paddy test), 13 to 15 days; for Rice plant response rating: Flood, 31 g ai/ha, scale 0 to 100 (0 no effect, 100 complete control)
Summary of the method: (§2)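 Visual scores run from 0 (no effect) to 100 (complete control), assigned by comparison with controls 13 to 15 days after treatment. Test compounds went straight into water standing 3 cm above the soil, around plants at the 2-leaf stage kept in a greenhouse.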

[10] = tested on: umbrella sedge (Cyperus difformis); test: Test B flooded paddy test; conditions: for Plant response rating, Flood, Sedge, Umbrella: 250 g ai/ha, flooded paddy test, visual rating on 0 to 100 scale (0 no effect, 100 complete control) after 13 to 15 days; for Plant response rating, Sedge, Umbrella: Flood (flooded paddy test), 13 to 15 days; for Sedge, Umbrella plant response rating: Flood, 31 g ai/ha, scale 0 to 100 (0 no effect, 100 complete control)
Summary of the method: as §2

[11] = 31 g ai/ha, 0 to 100 scale (0 no effect, 100 complete control)
[12] = 62 g ai/ha, scale 0 to 100 (0 no effect, 100 complete control)
[13] = 125 g ai/ha, scale 0 to 100 (0 no effect, 100 complete control)
[14] = 250 g ai/ha, scale 0 to 100 (0 no effect, 100 complete control), 13 to 15 days
[15] = 62 g ai/ha, scale of 0 to 100 where 0 is no effect and 100 is complete control
[16] = 125 g ai/ha, scale 0 to 100, 0 is no effect, 100 is complete control
[17] = 125 g ai/ha, scale 0 (no effect) to 100 (complete control), 13 to 15 days

Structure (SMILES): COCCn1c(-c2cccc(F)c2)ncc(C(=O)C2=C(O)C3CCC(C3)C2=O)c1=O (stereo not drawn) [Compound 235]
- Plant response rating, Corn (corn (Zea mays); [11]): 95
- Plant response rating, Corn (corn (Zea mays); [12]): 100
- Plant response rating, Corn (corn (Zea mays); [13]): 100
- Plant response rating, Corn (corn (Zea mays); [14]): 100
- Plant response rating, Surinam Grass [1, 11]: 80
- Plant response rating, Surinam Grass [1, 12]: 90
- Plant response rating, Surinam Grass [1, 14]: 100
- Plant response rating, Ragweed [2, 11]: 98
- Plant response rating, Ragweed [2, 12]: 100
- Plant response rating, Ragweed [2, 14]: 100
- Plant response rating, Goosegrass [3, 11]: 95
- Plant response rating, Goosegrass [3, 12]: 98
- Plant response rating, Goosegrass [3, 13]: 98
- Plant response rating, Goosegrass [3, 14]: 100
- Plant response rating, Foxtail, Giant [4, 11]: 98
- Plant response rating, Foxtail, Giant [4, 12]: 100
- Plant response rating, Foxtail, Giant [4, 13]: 100
- Plant response rating, Foxtail, Giant [4, 14]: 100
- Plant response rating, Lambsquarters [5, 11]: 98
- Plant response rating, Lambsquarters [5, 12]: 100
- Plant response rating, Lambsquarters [5, 13]: 100
- Plant response rating, Lambsquarters [5, 14]: 100
- Plant response rating, Pigweed [6, 11]: 100
- Plant response rating, Pigweed [6, 12]: 100
- Plant response rating, Pigweed [6, 14]: 100
- Plant response rating, Blackgrass [7, 11]: 45
- Plant response rating, Blackgrass [7, 12]: 60
- Plant response rating, Blackgrass [7, 13]: 70
- Plant response rating, Oat, Wild (wild oat (Avena fatua); [11]): 35
- Plant response rating, Oat, Wild (wild oat (Avena fatua); [12]): 50
- Plant response rating, Oat, Wild (wild oat (Avena fatua); [14]): 95
- Plant response rating, Foxtail, Green [8, 11]: 90
- Plant response rating, Foxtail, Green [8, 12]: 90
- Plant response rating, Foxtail, Green [8, 13]: 95
- Plant response rating, Foxtail, Green [8, 14]: 98
- Plant response rating, Johnsongrass [9, 11]: 70
- Plant response rating, Johnsongrass [9, 12]: 80
- Plant response rating, Johnsongrass [9, 13]: 100
- Plant response rating, Johnsongrass [9, 14]: 100
- Plant response rating, Flood, Rice (rice (Oryza sativa)): 55
- Plant response rating, Rice (rice (Oryza sativa); [15]): 0
- Plant response rating, Rice (rice (Oryza sativa); [16]): 45
- Rice plant response rating (rice (Oryza sativa)): 0
- Plant response rating, Flood, Sedge, Umbrella [10]: 80
- Plant response rating, Sedge, Umbrella [10, 15]: 70
- Plant response rating, Sedge, Umbrella [10, 16]: 80
- Sedge, Umbrella plant response rating [10]: 0

Structure (SMILES): CCCCn1c(-c2cccc(F)c2)ncc(C(=O)C2=C(O)C3CCC(C3)C2=O)c1=O (stereo not drawn) [Compound 237]
- Plant response rating, Corn (corn (Zea mays); [11]): 85
- Plant response rating, Corn (corn (Zea mays); [12]): 98
- Plant response rating, Corn (corn (Zea mays); [17]): 100
- Plant response rating, Corn (corn (Zea mays); [14]): 100
- Plant response rating, Surinam Grass [1, 11]: 85
- Plant response rating, Surinam Grass [1, 12]: 98
- Plant response rating, Surinam Grass [1, 17]: 100
- Plant response rating, Surinam Grass [1, 14]: 100
- Plant response rating, Ragweed [2, 11]: 95
- Plant response rating, Ragweed [2, 12]: 98
- Plant response rating, Ragweed [2, 17]: 100
- Plant response rating, Ragweed [2, 14]: 100
- Plant response rating, Goosegrass [3, 11]: 95
- Plant response rating, Goosegrass [3, 12]: 98
- Plant response rating, Goosegrass [3, 17]: 98
- Plant response rating, Goosegrass [3, 14]: 98
- Plant response rating, Foxtail, Giant [4, 11]: 98
- Plant response rating, Foxtail, Giant [4, 12]: 98
- Plant response rating, Foxtail, Giant [4, 17]: 98
- Plant response rating, Foxtail, Giant [4, 14]: 100
- Plant response rating, Lambsquarters [5, 11]: 95
- Plant response rating, Lambsquarters [5, 12]: 100
- Plant response rating, Lambsquarters [5, 17]: 100
- Plant response rating, Lambsquarters [5, 14]: 100
- Plant response rating, Pigweed [6, 11]: 80
- Plant response rating, Pigweed [6, 12]: 98
- Plant response rating, Pigweed [6, 17]: 100
- Plant response rating, Pigweed [6, 14]: 100
- Plant response rating, Blackgrass [7, 11]: 50
- Plant response rating, Blackgrass [7, 12]: 70
- Plant response rating, Blackgrass [7, 17]: 70
- Plant response rating, Blackgrass [7, 14]: 80
- Plant response rating, Oat, Wild (wild oat (Avena fatua); [11]): 40
- Plant response rating, Oat, Wild (wild oat (Avena fatua); [12]): 55
- Plant response rating, Oat, Wild (wild oat (Avena fatua); [17]): 60
- Plant response rating, Oat, Wild (wild oat (Avena fatua); [14]): 90
- Plant response rating, Foxtail, Green [8, 11]: 80
- Plant response rating, Foxtail, Green [8, 12]: 90
- Plant response rating, Foxtail, Green [8, 17]: 95
- Plant response rating, Foxtail, Green [8, 14]: 95
- Plant response rating, Johnsongrass [9, 11]: 100
- Plant response rating, Johnsongrass [9, 12]: 100
- Plant response rating, Johnsongrass [9, 17]: 100
- Plant response rating, Johnsongrass [9, 14]: 100
- Plant response rating, Flood, Rice (rice (Oryza sativa)): 45
- Plant response rating, Rice (rice (Oryza sativa); [15]): 0
- Plant response rating, Rice (rice (Oryza sativa); [16]): 0
- Rice plant response rating (rice (Oryza sativa)): 0
- Plant response rating, Flood, Sedge, Umbrella [10]: 100
- Plant response rating, Sedge, Umbrella [10, 15]: 45
- Plant response rating, Sedge, Umbrella [10, 16]: 55
- Sedge, Umbrella plant response rating [10]: 0
